# Measurements: patent US9499492B2, “4-(ortho)-fluorophenyl-5-fluoropyrimidin-2-yl amines containing a sulfoximine group” (BAYER PHARMA AKTIENGESELLSCHAFT, priority 2012, dated 2016)
# Structures can show the parent of a compound that is named as a salt. Where two headings read alike, the source gives them in different places.
# Legend:
# CDK9/CycT1 [1] = target: T1, CDK9/CycT1 (Homo sapiens (Human), UniProt P50750); assay: CDK9/CycT1 kinase assay (Method 1a); assay type: biochemical; conditions: for IC50: 10 μM ATP; for Selectivity CDK9/CDK2: derived from Methods 1a. and 2.
# T1 sequence (P50750 whole entry): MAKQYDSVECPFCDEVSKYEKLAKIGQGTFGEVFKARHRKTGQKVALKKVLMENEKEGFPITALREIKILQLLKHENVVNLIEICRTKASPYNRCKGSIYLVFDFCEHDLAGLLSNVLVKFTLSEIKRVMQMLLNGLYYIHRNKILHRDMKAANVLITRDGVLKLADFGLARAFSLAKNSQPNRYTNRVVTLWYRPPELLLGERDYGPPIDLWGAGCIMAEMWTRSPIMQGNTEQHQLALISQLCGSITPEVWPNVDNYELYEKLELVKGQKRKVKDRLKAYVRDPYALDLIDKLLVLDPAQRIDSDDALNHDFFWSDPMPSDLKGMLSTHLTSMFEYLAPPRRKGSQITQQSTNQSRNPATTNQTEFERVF
# T1 sequence (O60563 whole entry partner): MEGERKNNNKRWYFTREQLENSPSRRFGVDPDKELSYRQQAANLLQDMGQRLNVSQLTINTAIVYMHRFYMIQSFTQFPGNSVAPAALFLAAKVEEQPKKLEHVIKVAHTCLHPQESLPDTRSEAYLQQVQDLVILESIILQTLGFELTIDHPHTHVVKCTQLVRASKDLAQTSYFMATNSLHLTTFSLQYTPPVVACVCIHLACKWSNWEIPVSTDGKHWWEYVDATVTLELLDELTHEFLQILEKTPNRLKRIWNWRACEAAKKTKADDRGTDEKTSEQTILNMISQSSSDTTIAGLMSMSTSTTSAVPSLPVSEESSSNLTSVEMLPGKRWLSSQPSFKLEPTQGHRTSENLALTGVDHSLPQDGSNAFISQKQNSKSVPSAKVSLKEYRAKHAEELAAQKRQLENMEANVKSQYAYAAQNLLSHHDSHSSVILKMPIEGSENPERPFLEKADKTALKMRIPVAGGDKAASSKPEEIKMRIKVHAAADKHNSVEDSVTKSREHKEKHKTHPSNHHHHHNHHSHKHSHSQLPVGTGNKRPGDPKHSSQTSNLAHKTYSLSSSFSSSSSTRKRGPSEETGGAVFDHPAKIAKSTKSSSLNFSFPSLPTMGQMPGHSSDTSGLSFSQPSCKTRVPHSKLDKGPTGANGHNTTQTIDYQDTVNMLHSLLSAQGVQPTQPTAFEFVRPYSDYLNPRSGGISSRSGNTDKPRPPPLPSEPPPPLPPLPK
# Source text: 1a. CDK9/CycT1 Kinase Assay:
# CDK9/CycT1-inhibitory activity of compounds of the present invention was quantified employing the CDK9/CycT1 TR-FRET assay as described in the following paragraphs:
# (§1) Recombinant full-length His-tagged human CDK9 and CycT1, expressed in insect cells and purified by Ni-NTA affinity chromatography, were purchased from Invitrogen (Cat. No PV4131). As substrate for the kinase reaction biotinylated peptide biotin-Ttds-[…] (C-terminus in amid form) was used which can be purchased e.g. form the company JERINI Peptide Technologies (Berlin, Germany).
# (§2) For the assay 50 nl of a 100 fold concentrated solution of the test compound in DMSO was pipetted into a black low volume 384 well microtiter plate (Greiner Bio-One, Frickenhausen, Germany), 2 μl of a solution of CDK9/CycT1 in aqueous assay buffer [50 mM Tris/HCl pH 8.0, 10 mM MgCl2, 1.0 mM dithiothreitol, 0.1 mM sodium ortho-vanadate, 0.01% (v/v) Nonidet-P40 (Sigma)] were added and the mixture was incubated for 15 min at 22° C. to allow pre-binding of the test compounds to the enzyme before the start of the kinase reaction. […] The concentration of CDK9/CycT1 was adjusted depending of the activity of the enzyme lot and was chosen appropriate to have the assay in the linear range, typical concentrations were in the range of 1 μg/ml.
# (§3) The resulting mixture was incubated 1 h at 22° C. to allow the formation of complex between the phosphorylated biotinylated peptide and the detection reagents. Subsequently the amount of phosphorylated substrate was evaluated by measurement of the resonance energy transfer from the Eu-chelate to the streptavidine-XL. Therefore, the fluorescence emissions at 620 nm and 665 nm after excitation at 350 nm was measured in a HTRF reader, e.g. a Rubystar (BMG Labtechnologies, Offenburg, Germany) or a Viewlux (Perkin-Elmer). The ratio of the emissions at 665 nm and at 622 nm was taken as the measure for the amount of phosphorylated substrate.
# CDK2/CycE = CDK2/CycE (Homo sapiens (Human), UniProt P24941); assay: CDK2/CycE kinase assay (Method 2); assay type: biochemical; conditions: 10 μM ATP
# Source text: 2. CDK2/CycE Kinase Assay:
# CDK2/CycE-inhibitory activity of compounds of the present invention was quantified employing the CDK2/CycE TR-FRET assay as described in the following paragraphs:
# Recombinant fusion proteins of GST and human CDK2 and of GST and human CycE, expressed in insect cells (Sf9) and purified by Glutathion-Sepharose affinity chromatography, were purchased from ProQinase GmbH (Freiburg, Germany). As substrate for the kinase reaction biotinylated peptide biotin-Ttds-[…] (C-terminus in amid form) was used which can be purchased e.g. form the company JERINI Peptide Technologies (Berlin, Germany).
# as §2, with “CDK2/CycE” for “CDK9/CycT1”, “130 ng/ml.” for “1 μg/ml.”
# as §3, with “TR-FRET” for “HTRF”
# CDK9/CycT1 [2] = target: T1, CDK9/CycT1; assay: CDK9/CycT1 high ATP kinase assay (Method 1b); assay type: biochemical; conditions: 2 mM ATP
# Experimental: 1b. CDK9/CycT1 High ATP Kinase Assay
# CDK9/CycT1-inhibitory activity of compounds of the present invention at a high ATP concentration after preincubation of enzyme and test compounds was quantified employing the CDK9/CycT1 TR-FRET assay as described in the following paragraphs.
# as §1, with “were purchase” for “were purchased”, “JERINI peptide technologies” for “JERINI Peptide Technologies”
# as §2, with “of 0.5” for “of 1”
# as §3
# [3] = test system: HeLa, human cervical tumour cells; assay: Proliferation assay, HeLa (Method 3); assay type: cell-based; conditions: 4 days, crystal violet, read-out: Inhibition of HeLa cell proliferation IC50
# Experimental: (§4) After 24 hours, the cells of one plate (zero-point plate) were stained with crystal violet (see below), while the medium of the other plates was replaced by fresh culture medium (200 μl), to which the test substances were added in various concentrations (0 μM, as well as in the range of 0.001-10 μM; the final concentration of the solvent dimethyl sulfoxide was 0.5%). The cells were incubated for 4 days in the presence of test substances. Cell proliferation was determined by staining the cells with crystal violet: the cells were fixed by adding 20 μl/measuring point of an 11% glutaric aldehyde solution for 15 minutes at room temperature. After three washing cycles of the fixed cells with water, the plates were dried at room temperature. The cells were stained by adding 100 μl/measuring point of a 0.1% crystal violet solution (pH 3.0). After three washing cycles of the stained cells with water, the plates were dried at room temperature. The dye was dissolved by adding 100 μl/measuring point of a 10% acetic acid solution. The extinction was determined by photometry at a wavelength of 595 nm. The change of cell number, in percent, was calculated by normalization of the measured values to the extinction values of the zero-point plate (=0%) and the extinction of the untreated (0 μm) cells (=100%).
# [4] = test system: A2780, human ovarian carcinoma cells; assay: Proliferation assay, A2780 (Method 3); assay type: cell-based; conditions: A2780, 4 days, crystal violet, read-out: Inhibition of A2780 cell proliferation IC50
# Experimental: as §4
# [5] = In vitro metabolic stability in rat hepatocytes (Method 5); assay type: in vitro ADME, Han Wistar rat; conditions: 1 μM test compound
# Experimental: 5. Investigation of In Vitro Metabolic Stability in Rat Hepatocytes
# Hepatocytes from Han Wistar rats were isolated via a 2-step perfusion method. After perfusion, the liver was carefully removed from the rat: the liver capsule was opened and the hepatocytes were gently shaken out into a Petri dish with ice-cold Williams medium E (purchased from Sigma Aldrich Life Science, St Louis, Mo.). The resulting cell suspension was filtered through sterile gaze in 50 ml falcon tubes and centrifuged at 50×g for 3 min at room temperature. The cell pellet was resuspended in 30 ml WME and centrifuged through a Percoll® gradient for 2 times at 100×g. The hepatocytes were washed again with Williams' medium E (WMA) and resuspended in medium containing 5% Fetal calf serum (FCS, purchased from Invitrogen, Auckland, NZ). Cell viability was determined by trypan blue exclusion.
# For the metabolic stability assay liver cells were distributed in WME containing 5% FCS to glass vials at a density of 1.0×10^6 vital cells/ml. The test compound was added to a final concentration of 1 μM. During incubation, the hepatocyte suspensions were continuously shaken and aliquots were taken at 2, 8, 16, 30, 45 and 90 min, to which equal volumes of cold acetonitrile were immediately added. Samples were frozen at −20° C. over night, after subsequently centrifuged for 15 minutes at 3000 rpm and the supernatant was analyzed with an Agilent 1200 HPLC-system with LCMS/MS detection.
# The half-life of a test compound was determined from the concentration-time plot. From the half-life the intrinsic clearances were calculated. Together with the additional parameters liver blood flow, amount of liver cells in vivo and in vitro.
SMILES,IC50 (CDK9/CycT1 [1]) [nM],Selectivity CDK9/CDK2 (CDK9/CycT1 [1]),IC50 (CDK2/CycE) [nM],IC50 (CDK9/CycT1 [2]) [nM],"IC50 ([3]; Homo sapiens, 96 h) [nM]","IC50 ([4]; Homo sapiens, A2780, 96 h) [nM]",maximal calculated oral bioavailability (Fmax) based on stability data in rat Hepatocytes [5] [%],IC50 [3] [nM],IC50 [4] [nM]
"CS(=N)(=O)Cc1cccc(Nc2ncc(F)c(-c3ccc(F)cc3F)n2)c1 (racemic) [Example 9, (rac)-4-(2,4-Difluorophenyl)-5-fluoro-N-{3-[(S-methylsulfonimidoyl)methyl]phenyl}pyrimidin-2-amine]",42,25,1100,2710,–,–,–,–,–
"COCCS(=O)(Cc1cc(Nc2ncc(F)c(-c3ccc(F)cc3F)n2)cc(C(F)(F)F)c1)=NC#N (racemic) [Example 22, (rac)-{[3-{[4-(2,4-Difluorophenyl)-5-fluoropyrimidin-2-yl]amino}-5-(trifluoromethyl)benzyl](2-methoxyethyl)oxido-λ^6-sulfanylidene}cyanamide]",7,183,1200,19,900,–,–,–,–
"N=S(=O)(CCN)Cc1cc(Nc2ncc(F)c(-c3ccc(F)cc3F)n2)cc(C(F)(F)F)c1 (racemic) [Example 25, (rac)-N-[3-{[S-(2-Aminoethyl)sulfonimidoyl]methyl}-5-(trifluoromethyl)phenyl]-4-(2,4-difluorophenyl)-5-fluoropyrimidin-2-amine trifluoroacetate]",85,38,3200,417,2210,–,–,–,–
"N=S(=O)(CCN)Cc1cc(Nc2ncc(F)c(-c3ccc(F)cc3F)n2)cc(C(F)(F)F)c1 (single isomer, unassigned) [Example 27, N-[3-{[S-(2-Aminoethyl)sulfonimidoyl]methyl}-5-(trifluoromethyl)phenyl]-4-(2,4-difluorophenyl)-5-fluoropyrimidin-2-amine]",–,–,1100,276,–,–,–,–,–

# Compounds with a lower IC50 (CDK2/CycE), results first:
IC50 (CDK9/CycT1 [1]) [nM],Selectivity CDK9/CDK2 (CDK9/CycT1 [1]),IC50 (CDK2/CycE) [nM],IC50 (CDK9/CycT1 [2]) [nM],"IC50 ([3]; Homo sapiens, 96 h) [nM]","IC50 ([4]; Homo sapiens, A2780, 96 h) [nM]",maximal calculated oral bioavailability (Fmax) based on stability data in rat Hepatocytes [5] [%],IC50 [3] [nM],IC50 [4] [nM],SMILES
–,–,530,–,1020,540,75,–,–,"CS(=O)(Cc1cc(Cl)cc(Nc2ncc(F)c(-c3ccc(F)cc3F)n2)c1)=NC#N (racemic) [Example 14, (rac)-[(3-Chloro-5-{[4-(2,4-difluorophenyl)-5-fluoropyrimidin-2-yl]amino}benzyl)(methyl)oxido-λ^6-sulfanylidene]cyanamide]"
26,19,480,470,1360,180,–,–,–,"Cc1cc(CS(C)(=N)=O)cc(Nc2ncc(F)c(-c3ccc(F)cc3F)n2)c1 (racemic) [Example 17, (rac)-4-(2,4-Difluorophenyl)-5-fluoro-N-{3-methyl-5-[(S-methylsulfonimidoyl)methyl]phenyl}pyrimidin-2-amine]"
10,66,670,199,–,–,82,910,320,"CS(=O)(Cc1cc(Nc2ncc(F)c(-c3ccc(F)cc3F)n2)cc(C(F)(F)F)c1)=NC(N)=O (single isomer, unassigned) [Example 24, 1-{[3-{[4-(2,4-Difluorophenyl)-5-fluoropyrimidin-2-yl]amino}-5-(trifluoromethyl)benzyl](methyl)oxido-λ^6-sulfanylidene}urea]"
36,23,830,6310,1080,–,–,–,–,"Cc1cc(CS(C)(=N)=O)cc(Nc2ncc(F)c(-c3ccc(F)cc3F)n2)c1 (single isomer, unassigned) [Example 37, 4-(2,4-Difluorophenyl)-5-fluoro-N-{3-methyl-5-[(S-methylsulfonimidoyl)methyl]-phenyl}pyrimidin-2-amine]"
19,38,720,6490,–,–,–,649,–,"Cc1cc(CS(C)(=N)=O)cc(Nc2ncc(F)c(-c3ccc(F)cc3F)n2)c1 (single isomer, unassigned) [Example 38, 4-(2,4-Difluorophenyl)-5-fluoro-N-{3-methyl-5-[(S-methylsulfonimidoyl)methyl]-phenyl}pyrimidin-2-amine]"
